Where two headings read alike, the source gives them in different places.
What was measured:
limb bud cell culture = limb bud cell culture assay (evaluation of teratogenic potential); assay type: cell-based
From the text: Teratogene Effekte gehören zu den schwerschwiegensten Nebenwirkungen aller Retinoide.

Sebumdrüsen = assay: Minipig model (in vivo), histology of skin biopsies
From the text: Die Wirksamkeit der erfindungsgemässen Verbindungen bei der Behandlung der Akne kann mit den nachstehend beschriebenen Versuchsanordnungen gezeigt werden: • 1. Hemmung der Proliferation menschlicher Sebocyten (in vitro) Literatur: Methods in Enzymology 190, 334 (1990), T. Doran and S. Shapiro • 2. Aenderung der Differenzierung von Schweinesebocyten (invitro), Induktion von Keratin 7. Kulturen von Schweinesebocyten werden aus isolierten Sebumdrüsen erwachsener Minischweine hergestellt. Sie reagieren auf die Behandlung mit Retinoiden mit der Expression von Keratin 7, was auch der in vivo Situation entspricht. Keratin 7 wird als ein Marker für eine modifizierte Differenzierung der Sebocyten angesehen. Der entstehende Phenotyp kann kein Sebum mehr produzieren. Die Messung der Keratin 7-Induktion basiert auf einem ELISA assay unter Verwendung eines Maus-monoklonalen Antikeratin 7-Antikörpers. • 3. Minipig-Modell (in vivo) Die Haut der Minischweine hat eine ähnliche anatomische Struktur wie menschliche Haut. Im besonderen ähneln die Sebumdrüsen denen menschlicher Aknepatienten. Unter Retinoid-Behandlung zeigen sie die gleichen histologischen Veränderungen wie beim Menschen. Die Schweine erhalten täglich eine orale Dosis der Versuchssubstanz während 8 Wochen. Alle 2 Wochen wird eine Biopsie genommen und histologisch untersucht.

[1] = limb bud cell culture assay, IC50 correlates with in vivo teratogenicity, read-out: IC50

| Structure (SMILES) | IC50 (limb bud cell culture; [1]) [µM] | IC50 (limb bud cell culture) [µM] | other results |
| --- | --- | --- | --- |
| CC1=C(/C=C/C(C)=C/C=C/C(C)=C\C(=O)O)C(C)(C)C[C@H](O)C1 [Beispiel 1, (2Z,4E,6E,8E)-(R)-9-(4-Hydroxy-2,6,6-trimethyl-cyclohex-1-enyl)-3,7-dimethyl-nona-2,4,6,8-tetraensäure] | > 1 |  | Verkleinerung der Sebumdrüsen (Sebumdrüsen; daily oral dose 10 mg/kg, after 3-4 weeks): deutliche Verkleinerung der Sebumdrüsen; Sebumdrüsen nach 8 Wochen (Sebumdrüsen; daily oral dose 10 mg/kg, after 8 weeks): weitgehend verschwunden; Nebenwirkungen auf Haut und Schleimhäute (Sebumdrüsen; oral dose 50 mg/kg, in contrast to Isotretinoin): keinerlei Nebenwirkungen auf Haut und Schleimhäute |
| CC1=C(C#C/C(C)=C/C=C/C(C)=C\C(=O)O)C(C)(C)C[C@H](O)C1 [Beispiel 3, (2Z,4E,6E)-(R)-9-(4-Hydroxy-2,6,6-trimethyl-cyclohex-1-enyl)-3,7-dimethyl-nona-2,4,6-trien-8-yn-säure] | > 1 |  |  |
| CC1=C(/C=C/C(C)=C/C=C/C(C)=C\C(=O)O)C(C)(C)C(=O)C=C1 [Beispiel 4, (2Z,4E,6E,8E)-9-(5-Oxo-2,6,6-trimethyl-cyclohexa-1,3-dienyl)-3,7-dimethyl-nona-2,4,6,8-tetraensäure] | > 1 |  |  |
| CC1=C(/C=C/C(C)=C/C=C/C(C)=C\C(=O)O)C(C)(C)CCC1 [Isotretinoin, reference compound] |  | 0.2 |  |
| CC1=C(/C=C/C(C)=C/C=C/C(C)=C/C(=O)O)C(C)(C)CCC1 [Tretinoin, reference compound] |  | 0.08 |  |
